# Measurements: ChEMBL document CHEMBL4806962, “Methods and Compositions for Treating Cancer” (2020)
# Calls of active or inactive are those of the source. The calls are words filed in the database; no cut-off is given here.
# Tests used:
# [1] = tested on: Splenocyte; assay: Effects of compound on IL-2 production in anti-CD3/CD28-stimulated wild type mouse splenocytes assessed as increase in IL-2 levels at 10 uM after 48 hrs; assay type: functional, cell-based
# [2] = tested on: PBMC; assay: Effects of compound on INF-gamma production in anti-CD3/CD28-stimulated human PBMCs assessed as increase in INF-gamma level after 2 days by ELISA; assay type: functional, tissue-based; conditions: dose 1-10 µM, time 2.0 day
# [3] = Effects of compound on anti-CD3/CD28-stimulated human PBMCs assessed as CD4-positive cells population at 10 uM after 2 days by flow cytometric analysis; assay type: functional, PBMC; conditions: time 2 day
# [4] = Effects of compound on anti-CD3/CD28-stimulated human PBMCs assessed as non-T cells population at 10 uM after 2 days by flow cytometric analysis; assay type: functional, PBMC; conditions: time 2 day
# [5] = (§1) Ratio of FC for induction of INF-gamma production in anti-CD3/CD28-stimulated human PBMCs at 1 uM after 24 hrs in presence of PBF-509 and MRS-1754 to FC for induction of INF-gamma production in anti-CD3/CD28-stimulated human PBMCs at 1 uM after 24 hrs in presence of PBF-509 and absence of MRS-1754; assay type: functional, PBMC
# [6] = tested on: PBMC; assay: Effects of compound on IL-2 production in anti-CD3/CD28-stimulated human PBMCs assessed as increase in IL-2 level after 3 days by ELISA; assay type: functional, tissue-based; conditions: dose 3-60 µM, time 3.0 day
# [7] = molecular target: T1, Probable G-protein coupled receptor 174 (Homo sapiens, UniProt Q9BXC1); assay: Inverse agonist activity at GPR174 in anti-CD3/CD28-stimulated human PBMCs assessed as reduction in FoxP3-positive Helios-positive nTreg cells after 7 days by flow cytometric analysis; assay type: functional, tissue-based; conditions: PBMC, filed as inverse agonist, dose 3-30 µM, time 7.0 day
# [8] = tested on: PBMC; assay: Effect of compound on human PBMCs assessed as reduction in PD-L1 expression in CD4-positive T cells after 1 day by flow cytometric analysis; assay type: functional, cell-based; conditions: dose 1.25-5 µM
# [9] = molecular target: T1, Probable G-protein coupled receptor 174; assay: Antagonist activity at GPR174 (unknown origin) expressed in HEK293 cells assessed as inhibition of PS-induced GPR174 signaling at 1 to 2 uM incubated for 15 mins by GloSensor assay; assay type: functional, cell-based; parameters: scale not given: the % may be the effect or the level left; conditions: filed as antagonist, dose 1-2 µM
# [10] = tested on: PBMC; assay: Effect of compound on human PBMCs assessed as reduction in CTLA4 expression in non-Treg cells after 1 day by flow cytometric analysis; assay type: functional, cell-based; conditions: dose 0.19-6 µM
# [11] = tested on: PBMC; assay: Effect of compound on human PBMCs assessed as reduction in AREG expression in CD4-positive T cells after 1 day by flow cytometric analysis; assay type: functional, cell-based; conditions: dose 1.25-5 µM
# [12] = tested on: PBMC; assay: Effects of compound on TNF-alpha production in anti-CD3/CD28-stimulated human PBMCs assessed as fold increase in TNF-alpha level at 30 uM after 2 days by ELISA; assay type: functional, tissue-based; conditions: time 2.0 day
# [13] = molecular target: T1, Probable G-protein coupled receptor 174; assay: Antagonist activity at GPR174 (unknown origin) expressed in HEK293 cells assessed as inhibition of PS-induced GPR174 signaling incubated for 15 mins by GloSensor assay; assay type: functional, cell-based; conditions: filed as antagonist
# [14] = molecular target: T1, Probable G-protein coupled receptor 174; assay: Inverse agonist activity at GPR174 in anti-CD3/CD28-stimulated human PBMCs assessed as reduction in FoxP3-positive Helios-positive nTreg cells at 100 uM after 7 days by flow cytometric analysis; assay type: functional, tissue-based; conditions: PBMC, filed as inverse agonist, time 7.0 day
# [15] = tested on: PBMC; assay: Effect of compound on human PBMCs assessed as reduction in CTLA4 expression in memory non-Treg cells after 1 day by flow cytometric analysis; assay type: functional, cell-based; conditions: dose 0.19-6 µM
# [16] = tested on: CD4+ve Th; assay: Reduction in AREG expression in human CD4-positive T-cells at 10 uM in presence of A2aR inhibitor ZM-241385; assay type: functional
# [17] = tested on: Splenocyte; assay: Effects of compound on IL-2 production in anti-CD3/CD28-stimulated wild-type mouse spleenocytes assessed as fold increase in IL-2 level at 0.3 to 1 uM after 2 days; assay type: functional; conditions: dose 0.3-1 µM; time 2 day
# [18] = Ratio of FC for induction of TNF production in anti-CD3/CD28-stimulated human PBMCs at 1 uM after 24 hrs in presence of PBF-509 and MRS-1754 to FC for induction of TNF production in anti-CD3/CD28-stimulated human PBMCs at 1 uM after 24 hrs in presence of PBF-509 and absence of MRS-1754; assay type: functional, PBMC
# [19] = tested on: PBMC; assay: Effect of compound on human PBMCs assessed as reduction in CTLA4 expression in memory Treg cells after 1 day by flow cytometric analysis; assay type: functional, cell-based; conditions: dose 0.19-6 µM
# [20] = tested on: Splenocyte; assay: Effects of compound on IL-2 production in anti-CD3/CD28-stimulated GPR174 knock out mouse spleenocytes assessed as fold increase in IL-2 level at 0.3 uM after 2 days in presence of NECA; assay type: functional, cell-based; conditions: time 2.0 day
# [21] = Ratio of FC for induction of IL-2 production in anti-CD3/CD28-stimulated human PBMCs at 1 uM after 24 hrs in presence of ZM-241385 and MRS-1754 to FC for induction of IL-2 production in anti-CD3/CD28-stimulated human PBMCs at 1 uM after 24 hrs in presence of ZM-241385 and absence of MRS-1754; assay type: functional, PBMC
# [22] = Induction of TNF production in anti-CD3/CD28-stimulated human PBMCs assessed as fold increase in TNF level at 1 uM after 24 hrs in presence of 0.75 ug/ml ADA by ELISA; assay type: functional, PBMC
# [23] = Effects of compound on anti-CD3/CD28-stimulated human PBMCs assessed as non-T cells population at 10 uM after 4 hrs by flow cytometric analysis; assay type: functional, PBMC
# [24] = tested on: PBMC; assay: Effects of compound on INF-gamma production in anti-CD3/CD28-stimulated human PBMCs assessed as fold increase in INF-gamma level at 30 uM after 2 days by ELISA; assay type: functional; conditions: time 2.0 day
# [25] = tested on: PBMC; assay: Effects of compound on IL-2 production in anti-CD3/CD28-stimulated human PBMCs assessed as increase in IL-2 level at 30 uM after 2 days by ELISA; assay type: functional, tissue-based; conditions: time 2.0 day
# [26] = Effects of compound on anti-CD3/CD28-stimulated human PBMCs assessed as CD4-positive cells population at 10 uM after 4 hrs by flow cytometric analysis; assay type: functional, PBMC
# [27] = molecular target: T1, Probable G-protein coupled receptor 174; assay: Inverse agonist activity at GPR174 in anti-CD3/CD28-stimulated human PBMCs assessed as reduction in FoxP3-positive Helios-positive nTreg cells at 30 uM after 7 days by flow cytometric analysis; assay type: functional, tissue-based; conditions: PBMC, filed as inverse agonist, time 7.0 day
# [28] = molecular target: T1, Probable G-protein coupled receptor 174; assay: Inverse agonist activity at human GPR174 assessed as fold decrease in Gs signalling activity by CRA; assay type: functional; conditions: filed as inverse agonist
# [29] = as §1, with “ZM-241385” for “PBF-509”; assay type: functional, PBMC
# [30] = Induction of IL-2 production in anti-CD3/CD28-stimulated human PBMCs assessed as fold increase in IL-2 level at 1 uM after 24 hrs in presence of 0.1 uM A2aR inhibitor PBF-509 by ELISA; assay type: functional, PBMC
# T1 sequence (Q9BXC1 whole entry): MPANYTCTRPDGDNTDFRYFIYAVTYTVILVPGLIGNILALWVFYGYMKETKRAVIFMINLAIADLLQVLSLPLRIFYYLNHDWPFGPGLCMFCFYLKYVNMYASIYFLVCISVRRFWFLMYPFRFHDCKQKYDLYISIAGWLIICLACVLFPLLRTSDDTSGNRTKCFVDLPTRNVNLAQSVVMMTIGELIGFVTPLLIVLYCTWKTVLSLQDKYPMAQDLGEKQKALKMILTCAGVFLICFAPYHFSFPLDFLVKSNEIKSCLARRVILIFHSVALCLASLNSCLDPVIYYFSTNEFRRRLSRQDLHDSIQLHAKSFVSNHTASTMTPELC
compound,measurement,setting,value
CC1CCN(c2cc(N3CCN(S(=O)(=O)c4ccccc4)CC3)c([N+](=O)[O-])cc2F)CC1,Activity,[1],Active
same,Activity,[2],Dose-Dependent Effect
same,Activity,[3],31.8%
same,Activity,[4],33.1%
same,Ratio,[5],1
same,Activity,[6],Dose-Dependent Effect
same,Activity,[7],Dose-Dependent Effect
same,Activity,[8],Dose-Dependent Effect
same,Activity,[9],100%
same,Activity,[10],Dose-Dependent Effect
same,Activity,[11],Dose-Dependent Effect
same,Activity,[12],Active
same,Activity,[13],Dose-Dependent Effect
same,Activity,[14],Active
same,Activity,[15],Dose-Dependent Effect
same,Activity,[16],Active
same,fold change (FC),[17],10
same,Ratio,[18],1
same,Activity,[19],Dose-Dependent Effect
same,Activity,[20],inactive
same,Ratio,[21],0.7
same,fold change (FC),[22],1.9
same,Activity,[23],33.9%
same,Activity,[24],Active
same,Activity,[25],Active
same,Activity,[26],46.2%
same,Activity,[27],Active
same,fold change (FC),[28],0.2
same,Ratio,[29],1
same,fold change (FC),[30],1.9
